Laboratory results as given in patent publication US9987399B2, “Non-biodegradable stent comprising a biodegradable coating and method of coating the same” (Nanyang Technological University, priority 2007, dated 2018).

Test system: platelets (platelet rich plasma)
Assay: In vitro thrombogenicity/platelet adhesion, dynamic method with I-125 labeled PRP
Format: cell-based, Human
Conditions: 10% loading in PLGA 80/20 coating on metal strips, 2 hours perfusion at 40 mL min^−1; FIG. 5
Procedure: Metal strips with coatings of PLGA 80/20 containing varying amounts of triflusal (4, 7 and 10 wt %) were tested for thrombogenicity/platelet adhesion using a dynamic method. Human blood was collected and anti-coagulated. Platelet rich plasma (PRP) was then prepared from the blood, and labeled with radioactive iodine, I-125. The test samples were exposed to this labeled PRP for 2 hours under perfusion at a flow rate of 40 mL min^−1. Radioscintigraphy was then used on the washed and rinsed metal-coated strips, to count the number of adhered platelets.

CC(=O)Oc1cc(C(F)(F)F)ccc1C(=O)O [triflusal]
platelet adhesion: effective at reducing platelet adhesion
